Among the data in PubChem BioAssay (NCI) are TGI values, retold here.

Experiment in all cases: NCI anticancer screen, dose series, 48 h
Assay [1] has as its system A498 renal.
The subject of assay [2] is MDA-MB-231 breast.
The subject of assay [3] is MOLT-4 leukemia.
Assay [4] deals with M14 melanoma.
Assay [5] has as its system UO-31 renal.
Assay [6] relates to OVCAR-5 ovarian.
The subject of assay [7] is MDA-MB-435.
Assay [8] has as its system NCI-H460 lung.
For assay [9], the system named is HT29 colon.
Assay [10] relates to NCI-H522 lung.
In assay [11] the test system is SF-295 CNS.
The test system of assay [12] is HCC-2998 colon.
In assay [13] the test system is HOP-92 NSCLC.
The test system of assay [14] is SW-620 colon.
Assay [15] has as its system SK-OV-3 ovarian.
The subject of assay [16] is TK-10 renal.
Assay [17] deals with LOX IMVI melanoma.
Assay [18] deals with T-47D breast.
In assay [19] the test system is SNB-19 CNS.
Assay [20] concerns SF-268 CNS.

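The compound was tested at five concentrations on cells cultured in 96-well plates, with a 48-hour exposure period. Definition used: TGI = concentration required for complete inhibition of growth.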 A value given as a limit tells only on which side of the number the result lay.

For the compound `Cc1ccc2c(c1)C(=O)C(Cc1ccccc1C(=O)O)C2` (configuration not stated), the TGI in assay [1], in assay [2], in assay [3], in [4], in [5] and in assay [6] was greater than 100 µM each time. The TGI in assay [7], in [8], in assay [9], in [10], in assay [11] and in [12] was greater than 100 µM throughout. Moreover, the TGI in [13], in [14], in assay [15], in [16], in assay [17] and in assay [18] was greater than 100 µM throughout. Also, the TGI in assay [19] and in assay [20] was greater than 100 µM in each case.
Regarding `CCCCCCCC/C=C\CCCCCCC(F)C(=O)O` (configuration not stated), the TGI in assay [1], in [2], in [3], in assay [4], in assay [5] and in [6] was greater than 12.5 µM in each case. Also, the TGI in [7], in assay [9], in assay [10], in [11], in [12] and in [13] was greater than 12.5 µM in each case. Besides, the TGI in [14], in [15], in assay [16], in assay [17], in assay [18] and in assay [19] was greater than 12.5 µM in each case. For the same compound, in [20], the TGI is greater than 12.5 µM.
As for `O=S(=O)(N=S(c1ccc(Cl)cc1)c1ccc(Cl)cc1)c1ccccc1`, the TGI in assay [1], in [2], in [3], in assay [4], in assay [5] and in assay [6] was greater than 100 µM each time. In addition, the TGI in [7], in assay [8], in assay [9], in [10], in assay [11] and in assay [12] was greater than 100 µM throughout. The TGI in [13], in assay [14], in assay [15], in [16], in assay [17] and in assay [18] was greater than 100 µM in each case. Besides, the TGI in assay [19] and in assay [20] was greater than 100 µM each time.
In the case of `COC(=O)c1ccc(N=NN(C)COc2ccc(C#N)cc2)cc1`, the TGI in [1], in [2], in assay [3], in assay [4], in [5] and in assay [6] was greater than 100 µM in each case. Besides, the TGI in assay [7], in assay [8], in assay [9], in assay [10], in assay [11] and in assay [12] was greater than 100 µM each time. The TGI in assay [13], in [14], in assay [15], in [16], in [17] and in assay [18] was greater than 100 µM throughout. For the same compound, the TGI in assay [19] and in assay [20] was greater than 100 µM throughout.
Consider `COC1O[C@@H]2CCN3C(=O)[C@@H](OC(=O)c4ccc([N+](=O)[O-])cc4)[C@H]1C23` (some centres not stated), for which the TGI in assay [1], in assay [2], in assay [3], in [4], in assay [5] and in assay [6] was greater than 100 µM in each case. The TGI in [7], in assay [8], in assay [9], in assay [10], in [11] and in assay [12] was greater than 100 µM each time. Also, the TGI in assay [13], in assay [14], in assay [15], in assay [16], in [17] and in [18] was greater than 100 µM throughout. In addition, in [20], the TGI was greater than 100 µM.
Consider `Cn1c(=O)c2c(no[n+]2[O-])n(C)c1=O`, for which the TGI was 48 µM in [1]; 48.1 µM in [2]; greater than 100 µM in assay [3]; greater than 100 µM in assay [4]; 97.1 µM in [5]; greater than 100 µM in assay [6]. Also, the TGI in assay [7] is 38.3 µM; in assay [8] it was greater than 100 µM; in assay [9] it was greater than 100 µM; in assay [10] it was 30 µM; in assay [11], greater than 100 µM; in assay [12], greater than 100 µM. Further, the TGI in [13] was 44.1 µM; in assay [14], 59.9 µM; in assay [15], greater than 100 µM; in assay [16] it was 60.7 µM; in assay [17], greater than 100 µM; in assay [18], greater than 100 µM. Further, the values for the TGI in assay [19] and in [20] were 64.8 µM and 55.7 µM, respectively.
For the compound `Cc1cn(C2CC(O)C(Cn3cc(Cn4ncc(=O)[nH]c4=O)nn3)O2)c(=O)[nH]c1=O` (configuration not stated), the TGI in assay [1], in assay [2], in [3], in assay [4], in assay [5] and in assay [6] was greater than 100 µM each time. In addition, the TGI in assay [7], in assay [9], in [10], in assay [11], in assay [12] and in [13] was greater than 100 µM in each case. Further, the TGI in assay [14], in assay [15], in assay [16], in assay [17], in assay [18] and in [19] was greater than 100 µM each time. This compound showed a TGI in assay [20] greater than 100 µM.
